Assay results reported in patent US9427415B2, “Methods and compositions for modifying sensorial perception” (The Procter & Gamble Company, priority 2014, dated 2016).
Read-outs that look alike come from different tables or passages of the source.

Columns and labels:
TRPA1V1 = assay: Intracellular calcium (Fluo-4, FLIPR) activation of TRPA1V1 cells (co-expressing TRPA1 and TRPV1) by GRAS compounds; format: cell-based, human;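 note: HEK293 cells co-expressing TRPA1 and TRPV1, fluorescence read at 488/514 nm after baseline subtraction, recorded every 2 s over 10 min, ionomycin 10 µM and buffer as controls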
human TRPV1 = target: T1, human TRPV1 (Homo sapiens, UniProt Q8NER1, M315I/T336M); assay: Intracellular calcium (Fluo-4, FLIPR) activation of TRPV1 cells by GRAS compounds; format: cell-based; conditions: for activation at 1000 µM / activation at 100 µM / V1 activation, % of agonist value: relative to capsaicin 350 nM; for activation at 1000 µM / activation at 100 µM: read-out: V1 activation, % of agonist value;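 for all read-outs here: TRPV1-expressing cells, FLIPR fluorescence at 488/514 nm with baseline subtracted, sampled every 2 s for 10 min after adding compound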
T1 construct: expressed in transfected cells; pcDNA3 control cells

human TRPA1 = target: T2, human TRPA1 (Homo sapiens, UniProt O75762, K186N/R3C/R58T); assay: Intracellular calcium (Fluo-4, FLIPR) activation of TRPA1 cells by GRAS compounds; format: cell-based; conditions: relative to AITC 30 μM, read-out: A1 activation, % of agonist value; for activation at 1000 µM: Table 1(a), 1 mM, average of three plates;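 for all read-outs here: TRPA1-expressing cells, fluorescence read on a FLIPR Tetra (ex 488 nm, em 514 nm) every 2 s for 10 min after compound addition, baseline subtracted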
T2 construct: expressed in transfected cells; pcDNA3 control cells

[1] = Table 1(a), 1 mM, relative to AITC 30 μM, average of three plates
[2] = Table 1(a), 1 mM, average of three plates
[3] = Table 1(h), 1 mM, relative to capsaicin 350 nM
[4] = Table 1(g), 1 mM, relative to capsaicin 350 nM
[5] = Table 1(h), 100 μM (marked *), relative to capsaicin 350 nM
[6] = Table 1(f), 1 mM, relative to capsaicin 350 nM

T2 sequence (O75762 whole entry R3C/R58T/K186N): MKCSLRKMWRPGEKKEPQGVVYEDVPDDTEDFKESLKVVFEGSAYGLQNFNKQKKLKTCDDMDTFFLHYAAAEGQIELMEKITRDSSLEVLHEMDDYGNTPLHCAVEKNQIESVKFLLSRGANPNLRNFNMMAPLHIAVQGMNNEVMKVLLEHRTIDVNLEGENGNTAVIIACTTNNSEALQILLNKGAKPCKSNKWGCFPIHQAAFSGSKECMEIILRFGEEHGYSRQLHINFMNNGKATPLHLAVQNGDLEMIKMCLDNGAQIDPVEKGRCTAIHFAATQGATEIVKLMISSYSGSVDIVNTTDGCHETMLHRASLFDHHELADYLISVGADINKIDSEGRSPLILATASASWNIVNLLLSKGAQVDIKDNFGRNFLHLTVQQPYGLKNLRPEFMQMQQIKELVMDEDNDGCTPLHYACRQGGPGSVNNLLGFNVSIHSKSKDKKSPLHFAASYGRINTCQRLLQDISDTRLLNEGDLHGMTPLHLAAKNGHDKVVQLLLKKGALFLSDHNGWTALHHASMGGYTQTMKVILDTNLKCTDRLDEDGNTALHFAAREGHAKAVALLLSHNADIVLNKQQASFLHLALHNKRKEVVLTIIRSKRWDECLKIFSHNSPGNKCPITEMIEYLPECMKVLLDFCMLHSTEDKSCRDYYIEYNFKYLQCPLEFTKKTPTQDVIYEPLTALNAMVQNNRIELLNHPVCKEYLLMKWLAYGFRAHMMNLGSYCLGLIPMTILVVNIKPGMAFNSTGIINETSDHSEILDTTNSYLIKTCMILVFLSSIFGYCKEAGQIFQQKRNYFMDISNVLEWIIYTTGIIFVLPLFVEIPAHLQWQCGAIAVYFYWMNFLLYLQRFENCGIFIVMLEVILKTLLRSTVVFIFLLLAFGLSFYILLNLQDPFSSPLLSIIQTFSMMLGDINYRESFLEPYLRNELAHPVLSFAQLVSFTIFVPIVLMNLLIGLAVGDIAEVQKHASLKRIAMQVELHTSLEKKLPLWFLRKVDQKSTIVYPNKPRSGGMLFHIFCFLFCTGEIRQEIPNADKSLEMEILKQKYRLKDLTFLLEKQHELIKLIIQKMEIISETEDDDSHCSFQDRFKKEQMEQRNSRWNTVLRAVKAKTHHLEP
T1 sequence (Q8NER1 whole entry M315I/T336M): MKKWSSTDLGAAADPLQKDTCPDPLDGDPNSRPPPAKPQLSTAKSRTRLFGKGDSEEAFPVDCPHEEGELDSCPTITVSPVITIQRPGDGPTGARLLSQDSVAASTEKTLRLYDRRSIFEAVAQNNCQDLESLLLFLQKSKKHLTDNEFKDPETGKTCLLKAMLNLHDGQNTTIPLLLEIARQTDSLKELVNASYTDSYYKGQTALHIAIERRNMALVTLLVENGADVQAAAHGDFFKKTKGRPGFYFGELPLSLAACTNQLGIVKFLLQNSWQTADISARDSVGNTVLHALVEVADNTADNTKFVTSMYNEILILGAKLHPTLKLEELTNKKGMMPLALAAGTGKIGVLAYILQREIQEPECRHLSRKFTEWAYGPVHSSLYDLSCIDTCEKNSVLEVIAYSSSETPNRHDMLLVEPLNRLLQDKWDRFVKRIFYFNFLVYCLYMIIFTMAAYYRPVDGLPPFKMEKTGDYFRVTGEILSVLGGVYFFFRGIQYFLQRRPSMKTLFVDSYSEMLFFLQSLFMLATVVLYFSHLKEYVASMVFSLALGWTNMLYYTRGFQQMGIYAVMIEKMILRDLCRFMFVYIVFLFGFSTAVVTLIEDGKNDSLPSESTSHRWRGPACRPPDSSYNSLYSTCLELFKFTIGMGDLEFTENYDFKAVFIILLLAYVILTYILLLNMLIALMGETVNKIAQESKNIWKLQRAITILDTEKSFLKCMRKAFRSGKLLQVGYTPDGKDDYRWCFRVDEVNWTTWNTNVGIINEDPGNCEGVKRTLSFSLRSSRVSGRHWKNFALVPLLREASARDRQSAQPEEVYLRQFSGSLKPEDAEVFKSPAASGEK

Q: Which results are given for C=CC(=O)CCCCC [1-Octen-3-one]?
A: A1V1 activation, % of agonist value (TRPA1V1; [1]): 98.9%; activation at 1000 µM (human TRPV1; [2]): 63.2%; activation at 1000 µM (human TRPA1): 118%

Q: For CC(=O)C(=O)c1ccccc1 [1-Phenyl-1,2-propanedione], which “A1V1 activation, % of agonist value” (TRPA1V1; [1]) is on record?
A: The value was 105.5%.

Q: And the “A1V1 activation, % of agonist value” (TRPA1V1; Table 1(d), 100 μM (*), relative to AITC 30 μM)?
A: Its value is 71.4%.

Q: What about the activation at 1000 µM (human TRPV1; [2]) of the same compound?
A: The activation at 1000 µM was 66.6%.

Q: What about the activation at 1000 µM (human TRPA1) of the same compound?
A: Its activation at 1000 µM is 98.6%.

Q: What about the activation at 100 µM (human TRPA1; Table 1(d)) of the same compound?
A: Its activation at 100 µM is 100%.

Q: Which results are given for Cc1ccc(C)c(O)c1C [2,3,6-Trimethylphenol]?
A: A1V1 activation, % of agonist value (TRPA1V1; [1]): 91.4%; activation at 1000 µM (human TRPV1; [2]): 74.8%; activation at 1000 µM (human TRPA1): 90%

Q: For CC1=NC(C)OC1C (stereo not drawn) [2,4,5-Trimethyl-3-oxazoline], which “A1V1 activation, % of agonist value” (TRPA1V1; Table 1(i), 100 μM (*), relative to AITC 30 μM or capsaicin 350 nM depending on compound, […]) is on record?
A: The value was 4.1%.

Q: What about the activation at 100 µM (human TRPV1; Table 1(i), 100 μM (*), […]) of the same compound?
A: The activation at 100 µM was 101%.

Q: And the “TRPV1 activation selectivity, in words” value (human TRPV1; statement in description, see Table 1(i))?
A: Its value is “TRPV1 activators which do not modulate TRPA1 or TRPA1V1”.

Q: What about the activation at 100 µM (human TRPA1; Table 1(i), […]) of the same compound?
A: Its activation at 100 µM is 2.1%.

Q: Which results are given for c1ccc(CCCc2ccccn2)cc1 [2-(3-Phenylpropyl)pyridine]?
A: A1V1 activation, % of agonist value (TRPA1V1; [1]): 74.53%; activation at 1000 µM (human TRPV1; [2]): 21.5%; activation at 1000 µM (human TRPA1): 76%

Q: Which “A1V1 activation, % of agonist value” (TRPA1V1; [1]) does the source give for O=Cc1cc2ccccc2o1 [2-Benzofurancarboxaldehyde] here?
A: The value was 102.3%.

Q: What about the activation at 1000 µM (human TRPV1; [2]) of the same compound?
A: The activation at 1000 µM was 57.6%.

Q: And the activation at 1000 µM (human TRPA1)?
A: Its activation at 1000 µM is 91%.

Q: Which “A1V1 activation, % of agonist value” (TRPA1V1; [1]) does the source give for CCCCc1ccco1 [2-Butylfuran] here?
A: Its value is 62.77%.

Q: And the activation at 1000 µM (human TRPV1; [2])?
A: Its activation at 1000 µM is 20.2%.

Q: What about the activation at 1000 µM (human TRPA1) of the same compound?
A: Its activation at 1000 µM is 68.5%.

Q: For CC(C)[C@@H]1CC[C@@H](C)C[C@@H]1O [(+)-Neomenthol], which “A1V1 activation, % of agonist value” (TRPA1V1; [3]) is on record?
A: The value was 44.8%.

Q: And the “V1 activation, % of agonist value” (human TRPV1; Table 1(h), 1 mM)?
A: The value was 68.8%.

Q: For CC(=O)S [Acetic acid, thio-], which “A1V1 activation, % of agonist value” (TRPA1V1; [4]) is on record?
A: The value was 115.1%.

Q: And the “V1 activation, % of agonist value” (human TRPV1; Table 1(g), 1 mM)?
A: Its value is 61.9%.

Q: O=C(O)CCCCC(=O)O [Adipic acid] was tested. Which “A1V1 activation, % of agonist value” (TRPA1V1; [4]) did it give?
A: Its value is 70.4%.

Q: And the activation at 1000 µM (human TRPV1; Table 1(g), 1 mM)?
A: The activation at 1000 µM was 47.6%.

Q: Which “A1V1 activation, % of agonist value” (TRPA1V1; [5]) does the source give for COc1ccccc1 [Anisole] here?
A: The value was 34.7%.

Q: And the activation at 100 µM (human TRPV1; Table 1(h), 100 μM (marked *))?
A: The activation at 100 µM was 48.3%.

Q: For CCCCCCCCCC1CCCC(=O)O1 (stereo not drawn) [Delta-tetradecalactone], which “A1V1 activation, % of agonist value” (TRPA1V1; [4]) is on record?
A: Its value is 61.7%.

Q: What about the “V1 activation, % of agonist value” (human TRPV1; Table 1(g), 1 mM) of the same compound?
A: The value was 33.0%.

Q: How did the “A1V1 activation, % of agonist value” (TRPA1V1; [6]) turn out when CCCCC1CCCCC(=O)O1 (stereo not drawn) [Epsilon-Decalactone] was run?
A: The value was 52.9%.

Q: And the “V1 activation, % of agonist value” (human TRPV1; Table 1(f), 1 mM)?
A: Its value is 47.7%.

Q: Which results are given for CSCc1ccco1 [Furfuryl methyl sulfide]?
A: A1V1 activation, % of agonist value (TRPA1V1; [4]): 111.6%; activation at 1000 µM (human TRPV1; Table 1(g), 1 mM): 50.1%

Q: For O=C([O-])[C@H](O)[C@@H](O)[C@H](O)[C@H](O)CO.[K+] [Gluconic acid, monopotassium salt], which “A1V1 activation, % of agonist value” (TRPA1V1; [3]) is on record?
A: The value was 14.0%.

Q: And the activation at 1000 µM (human TRPV1; Table 1(h), 1 mM)?
A: The activation at 1000 µM was 33%.

Q: For c1ccc2[nH]ccc2c1 [Indole], which “A1V1 activation, % of agonist value” (TRPA1V1; [6]) is on record?
A: The value was 42.9%.

Q: And the activation at 1000 µM (human TRPV1; Table 1(f), 1 mM)?
A: Its activation at 1000 µM is 53.3%.

Q: With CC(=O)CC(=O)OCC(C)C [Isobutyle acetoacetate] as the compound, how does the “A1V1 activation, % of agonist value” (TRPA1V1; [4]) read?
A: Its value is 81.9%.

Q: What about the “V1 activation, % of agonist value” (human TRPV1; Table 1(g), 1 mM) of the same compound?
A: Its value is 54.1%.

Q: Which results are given for O=C(O)[C@H](O)[C@@H](O)C(=O)O [L-(+)-Tartaric acid]?
A: A1V1 activation, % of agonist value (TRPA1V1; [5]): 38.4%; V1 activation, % of agonist value (human TRPV1; Table 1(h), 100 μM (marked *)): 60.4%

Q: What does the source list for CCCCCCCC(=O)O [Octanoic acid]?
A: A1V1 activation, % of agonist value (TRPA1V1; [6]): 83.4%; activation at 1000 µM (human TRPV1; Table 1(f), 1 mM): 73.7%

Q: Which “A1V1 activation, % of agonist value” (TRPA1V1; [3]) does the source give for O=C(/C=C/C=C/c1ccc2c(c1)OCO2)N1CCCCC1 [Piperine] here?
A: Its value is 57.1%.

Q: And the activation at 1000 µM (human TRPV1; Table 1(h), 1 mM)?
A: The activation at 1000 µM was 120%.

Q: For O=C(O)c1ccc(O)c(O)c1 [Protocatechuic acid], which “A1V1 activation, % of agonist value” (TRPA1V1; [4]) is on record?
A: The value was 121.05%.

Q: And the activation at 1000 µM (human TRPV1; Table 1(g), 1 mM)?
A: Its activation at 1000 µM is 60.6%.

Q: Which “A1V1 activation, % of agonist value” (TRPA1V1; [3]) does the source give for O=C(O)C(O)C(O)C(=O)O (stereo not drawn) [Tartaric acid] here?
A: Its value is 29.6%.

Q: What about the activation at 1000 µM (human TRPV1; Table 1(h), 1 mM) of the same compound?
A: The activation at 1000 µM was 55.8%.

Q: Which “A1V1 activation, % of agonist value” (TRPA1V1; [4]) does the source give for CC(C=O)=Cc1ccccc1 [alpha-Methylcinnamaldehyde] here?
A: Its value is 104.4%.

Q: What about the activation at 1000 µM (human TRPV1; Table 1(g), 1 mM) of the same compound?
A: Its activation at 1000 µM is 54.6%.

Q: With Cc1ccc(C=O)c(O)c1 [m-Homosalicylaldehyde] as the compound, how does the “A1V1 activation, % of agonist value” (TRPA1V1; [4]) read?
A: The value was 140.7%.

Q: What about the activation at 1000 µM (human TRPV1; Table 1(g), 1 mM) of the same compound?
A: The activation at 1000 µM was 56.5%.

Q: Which results are given for Tolylaldehyde glyceryl acetyl?
A: A1V1 activation, % of agonist value (TRPA1V1; [4]): 110.7%; V1 activation, % of agonist value (human TRPV1; Table 1(g), 1 mM): 53.0%
